The source of these data is ChEMBL document CHEMBL1201862, “PubChem BioAssay data set” (2004).

Among the test systems are ACHN; CAKI-1; EKVX; HOP-92; K562; KM-20L2; KM12; LOX IMVI; NCI-H226; NCI-H460; OVCAR-3; OVCAR-8; RPMI-8226; RXF 393; SF-295; SK-OV-3; SNB-19; SR; SW-620; UO-31.
Test in all cases: NCI tumour cell line growth inhibition, 48 h

SMILES strings stand for the structures.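 Following 48 hours of exposure in 96-well plates, responses at five concentrations were used to interpolate endpoints linearly. GI50 is the concentration that inhibits growth by half.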 Active and inactive are the calls of the source. Rule as the data show it: active = GI50 up to about 1.1 µM and inactive = higher. Some results are limits rather than exact numbers.

Consider `Cc1cccc(C(C)C)c1NC(=O)C(=O)CC(=O)c1c(C)[n+]([O-])c2ccccc2[n+]1[O-]`, for which the GI50 is > 100 µM (inactive) in the test on ACHN; 25.6 µM (inactive) with CAKI-1; 30.7 µM (inactive) in the test on EKVX; 67 µM (inactive) in the test on HOP-92; > 100 µM (inactive) in the test on K562; 37.6 µM (inactive) with KM-20L2. Further, the GI50 with KM12 is 38.6 µM (inactive); in the test on LOX IMVI, 23 µM (inactive); in the test on NCI-H226, > 100 µM (inactive); with NCI-H460, 21.5 µM (inactive); with OVCAR-3, 3.44 µM (inactive); in the test on OVCAR-8, 31.9 µM (inactive). Also, the GI50 was 22.2 µM (inactive) with RPMI-8226; 44.2 µM (inactive) with RXF 393; 49.1 µM (inactive) with SF-295; > 100 µM (inactive) with SK-OV-3; 31.8 µM (inactive) with SNB-19; 28.2 µM (inactive) in the test on SR. Moreover, the GI50 with SW-620 was 33.1 µM (inactive); in the test on UO-31 it was > 100 µM (inactive).

`CNC(=O)OCc1nc(SSC(C)(C)C)n(C)c1COC(=O)NC`: the GI50 is 2.7 µM (inactive) in the test on ACHN; 1.82 µM (inactive) in the test on CAKI-1; 8.28 µM (inactive) with EKVX; 1.78 µM (inactive) in the test with HOP-92; 1.94 µM (inactive) with K562; 12.8 µM (inactive) in the test with KM-20L2. In addition, the GI50 in the test with KM12 is 17.3 µM (inactive); with LOX IMVI it was 3.58 µM (inactive); in the test with NCI-H226, 13.3 µM (inactive); in the test on NCI-H460, 10.7 µM (inactive); in the test on OVCAR-3 it was 2.1 µM (inactive); in the test on OVCAR-8, 2.07 µM (inactive). For the same molecule, the GI50 was 2.54 µM (inactive) in the test with RPMI-8226; 1.45 µM (inactive) in the test on RXF 393; 17.1 µM (inactive) in the test with SF-295; 17.1 µM (inactive) with SK-OV-3; 18 µM (inactive) in the test on SNB-19; 1.05 µM (active) with SR. The GI50 was 1.61 µM (inactive) in the test with SW-620 and 9.02 µM (inactive) in the test with UO-31.

With `COC(=O)c1cccc2cccc(C(=O)Nc3ccc(Cl)cc3)c12`, the GI50 with ACHN was 2.92 µM (inactive); with CAKI-1 it was > 100 µM (inactive); in the test with EKVX it was 23.2 µM (inactive); with HOP-92 it was > 69.7 µM (inactive); with K562, 0.142 µM (active); with KM-20L2 it was > 24.2 µM (inactive). The GI50 in the test with KM12 was > 40.9 µM (inactive); in the test with LOX IMVI, 0.664 µM (active); with NCI-H226 it was > 100 µM (inactive); in the test on NCI-H460 it was 10.3 µM (inactive); in the test on OVCAR-3, 29.2 µM (inactive); in the test with OVCAR-8, > 79.8 µM (inactive). Also, the GI50 in the test on RPMI-8226 is 2.09 µM (inactive); in the test on RXF 393 it was > 100 µM (inactive); in the test on SF-295 it was 1.72 µM (inactive); with SK-OV-3, > 100 µM (inactive); in the test on SNB-19 it was > 100 µM (inactive); in the test with SR it was 17.1 µM (inactive). In addition, the GI50 was 11.4 µM (inactive) in the test with SW-620 and 2.94 µM (inactive) in the test with UO-31.

Consider `O=C(NC(c1ccccc1)C(O)C(=O)OCc1ccc2c(c1)C(=O)c1ccccc1C2=O)c1ccccc1` (centres undefined), for which the GI50 in the test with ACHN is 9.31 µM (inactive); in the test on CAKI-1, 8.65 µM (inactive); with EKVX, 24.7 µM (inactive); in the test on HOP-92, 3.15 µM (inactive); in the test with K562, > 90.6 µM (inactive); in the test with KM-20L2, > 51.2 µM (inactive). The GI50 with KM12 was 57.4 µM (inactive); in the test on LOX IMVI, 13.2 µM (inactive); in the test on NCI-H226 it was 4.61 µM (inactive); with NCI-H460, 14.9 µM (inactive); in the test on OVCAR-3, 12.6 µM (inactive); in the test with OVCAR-8, 4.25 µM (inactive). For the same molecule, the GI50 in the test on RPMI-8226 was 35.8 µM (inactive); in the test on RXF 393, 3.13 µM (inactive); in the test with SF-295, 10.6 µM (inactive); with SK-OV-3 it was 5.18 µM (inactive); in the test on SNB-19, 5.47 µM (inactive); in the test on SR it was 57.9 µM (inactive). Moreover, the GI50 in the test with SW-620 was 63.5 µM (inactive); in the test on UO-31 it was 2.86 µM (inactive).

For `S=P(c1ccccc1)(c1ccccc1)C1(C2(P(=S)(c3ccccc3)c3ccccc3)CC2)CC1`, the GI50 with ACHN, in the test on EKVX, with K562, in the test with KM-20L2, in the test on KM12 and with LOX IMVI was > 100 µM (inactive) in each case. The GI50 in the test on NCI-H226, in the test on NCI-H460, in the test on OVCAR-8, in the test with RXF 393, in the test on SF-295 and in the test on SNB-19 was > 100 µM (inactive) throughout. Besides, the GI50 in the test on SR, in the test with SW-620 and in the test on UO-31 was > 100 µM (inactive) throughout.

On to `O=C(CSc1nc(-c2ccccc2)c(-c2ccccc2)[nH]1)N/N=C/c1ccc(O)cc1`, for which the GI50 in the test with ACHN was 22.1 µM (inactive); with EKVX it was 30.1 µM (inactive); in the test with HOP-92, 22.8 µM (inactive); in the test on K562, 23.6 µM (inactive); with KM-20L2, 24.5 µM (inactive); in the test with KM12, 22.6 µM (inactive). In addition, the GI50 in the test on LOX IMVI is 17.9 µM (inactive); in the test with NCI-H226, 31.3 µM (inactive); in the test on NCI-H460, 20 µM (inactive); with OVCAR-3, 18.2 µM (inactive); with OVCAR-8 it was 17.2 µM (inactive); in the test with RPMI-8226 it was 25.7 µM (inactive). The GI50 in the test on RXF 393 is 24.2 µM (inactive); with SF-295, 22.4 µM (inactive); with SK-OV-3, 24.8 µM (inactive); in the test with SNB-19, 32.5 µM (inactive); in the test with SR, 16.4 µM (inactive); with SW-620, 30.8 µM (inactive). Besides, the GI50 with UO-31 is 28.1 µM (inactive).

Regarding `NC1=C2C(Br)=CN([C@@H]3O[C@H](CO)[C@@H](O)[C@@H]3O)C2C(=O)N=N1` (some centres undefined), the GI50 in the test with ACHN was 9.04 µM (inactive); with CAKI-1 it was 0.396 µM (active); with EKVX, 5.93 µM (inactive); in the test with HOP-92 it was 2.51 µM (inactive); in the test on K562, 6.67 µM (inactive); in the test with KM-20L2, 22.2 µM (inactive). The GI50 in the test on KM12 is 7.38 µM (inactive); in the test on LOX IMVI, 1.03 µM (active); in the test on NCI-H226, 18.2 µM (inactive); in the test on NCI-H460, 1.49 µM (inactive); in the test on OVCAR-3, 0.811 µM (active); with OVCAR-8, 0.577 µM (active). Moreover, the GI50 in the test on RPMI-8226 was 1.94 µM (inactive); with RXF 393, 2.28 µM (inactive); in the test on SF-295, 15.8 µM (inactive); in the test with SK-OV-3, 30.5 µM (inactive); in the test with SNB-19, 43.1 µM (inactive); in the test with SR, 0.475 µM (active). Besides, the GI50 was 1.15 µM (inactive) in the test on SW-620 and 4.85 µM (inactive) with UO-31.

For the molecule `N#CC(c1ccc(Cl)cc1)c1cccc(C(C#N)c2ccc(Cl)cc2)n1` (centres undefined), the GI50 is 10.8 µM (inactive) with ACHN; 16.9 µM (inactive) in the test on CAKI-1; 25 µM (inactive) in the test with EKVX; 15.2 µM (inactive) in the test with HOP-92; 6.35 µM (inactive) in the test on K562; 38.8 µM (inactive) with KM-20L2. The GI50 with KM12 was 17.6 µM (inactive); in the test on NCI-H226 it was 37.4 µM (inactive); in the test with NCI-H460, 23.1 µM (inactive); in the test on OVCAR-3 it was 15.9 µM (inactive); in the test on OVCAR-8 it was 55.1 µM (inactive); with RPMI-8226, 82 µM (inactive). Besides, the GI50 in the test with SF-295 is 8.43 µM (inactive); with SK-OV-3 it was 47.4 µM (inactive); in the test with SNB-19, 26.5 µM (inactive); in the test on SR, 9.31 µM (inactive); in the test on SW-620 it was 46 µM (inactive); in the test with UO-31 it was 4.65 µM (inactive).

For the molecule `CO[C@H]1C[C@](C)(O)Cc2cc3c(c(O)c21)C(=O)c1c(O)cc2c(c1C3=O)O[C@@H]1O[C@@]2(C)[C@H](O)[C@@H](N(C)C)[C@@H]1O`, the GI50 in the test on ACHN is 0.279 µM (active); in the test with CAKI-1 it was 0.151 µM (active); in the test on EKVX it was 3.55 µM (inactive); with HOP-92, 0.362 µM (active); in the test on K562, 1.12 µM (inactive); in the test with KM-20L2, 2.89 µM (inactive). Besides, the GI50 is 1.76 µM (inactive) with KM12; 0.59 µM (active) with NCI-H226; 0.0295 µM (active) in the test with NCI-H460; 2.38 µM (inactive) in the test on OVCAR-3; 0.9 µM (active) in the test with OVCAR-8; 1.17 µM (inactive) with RXF 393. Besides, the GI50 in the test on SF-295 is 0.284 µM (active); with SK-OV-3, 0.641 µM (active); with SNB-19, 0.434 µM (active); with SR, 0.0282 µM (active); in the test with SW-620, 0.55 µM (active); in the test on UO-31 it was 1.74 µM (inactive).

With `C/C(CC(=O)Nc1cccc(C)c1C)=N\NC(N)=S`, the GI50 in the test with ACHN, with CAKI-1, in the test on EKVX, in the test on HOP-92, in the test on K562 and with KM-20L2 was > 100 µM (inactive) throughout. Besides, the GI50 in the test with KM12, in the test with LOX IMVI, with NCI-H226, in the test with NCI-H460, in the test with OVCAR-3 and in the test with OVCAR-8 was > 100 µM (inactive) throughout. For the same molecule, the GI50 with RPMI-8226 was 40.8 µM (inactive); in the test with RXF 393, > 100 µM (inactive); in the test with SF-295, > 100 µM (inactive); in the test on SK-OV-3, > 100 µM (inactive); with SNB-19, > 100 µM (inactive); in the test on SR, 26.2 µM (inactive). In addition, in the test on UO-31, the GI50 was > 100 µM (inactive).
